Patent US12077503B2, “Substituted cyclic amides and their use as herbicides” (FMC CORPORATION, priority 2015, dated 2024)

What was measured:
Type in all cases: in vivo
[1] = test system: barnyardgrass (Echinochloa crus-galli); assay: Test A preemergence; conditions: Preemergence, 1000 g ai/ha; 0 is no effect, 100 is complete control
Outline: (§1)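 Visual injury, scored on a 0–100 scale relative to untreated controls, was recorded about 10 d after application. Treatments were a preemergence soil spray over planted seeds or a postemergence spray on plants at the one- to two-leaf stage, 2 to 10 cm tall, all in loam soil–sand blend in the greenhouse.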

corn (Zea mays) [2] = assay: Test A preemergence; conditions: Preemergence, 1000 g ai/ha; 0 is no effect, 100 is complete control
Outline: as §1

[3] = test system: crabgrass, large (Digitaria sanguinalis); assay: Test A preemergence; conditions: Preemergence, 1000 g ai/ha; 0 is no effect, 100 is complete control
Outline: as §1

[4] = test system: giant foxtail (Setaria faberii); assay: Test A preemergence; conditions: Preemergence, 1000 g ai/ha; 0 is no effect, 100 is complete control
Outline: as §1

[5] = test system: morningglory (Ipomoea spp.); assay: Test A preemergence; conditions: Preemergence, 1000 g ai/ha; 0 is no effect, 100 is complete control
Outline: as §1

[6] = test system: pigweed (Amaranthus retroflexus); assay: Test A preemergence; conditions: Preemergence, 1000 g ai/ha; 0 is no effect, 100 is complete control
[7] = test system: velvetleaf (Abutilon theophrasti); assay: Test A preemergence; conditions: Preemergence, 1000 g ai/ha; 0 is no effect, 100 is complete control
Outline: as §1

[8] = test system: wheat (Triticum aestivum); assay: Test A preemergence; conditions: Preemergence, 1000 g ai/ha; 0 is no effect, 100 is complete control
Outline: as §1

[9] = test system: barnyardgrass (Echinochloa crus-galli); assay: Test A postemergence; conditions: 1000 g ai/ha, postemergence; 0 to 100 scale, 0 no effect, 100 complete control
Outline: as §1

corn (Zea mays) [10] = assay: Test A postemergence; conditions: 1000 g ai/ha, postemergence; 0 to 100 scale, 0 no effect, 100 complete control
Outline: as §1

[11] = test system: crabgrass, large (Digitaria sanguinalis); assay: Test A postemergence; conditions: 1000 g ai/ha, postemergence; 0 to 100 scale, 0 no effect, 100 complete control
Outline: as §1

[12] = test system: giant foxtail (Setaria faberii); assay: Test A postemergence; conditions: 1000 g ai/ha, postemergence; 0 to 100 scale, 0 no effect, 100 complete control
Outline: as §1

[13] = test system: morningglory (Ipomoea spp.); assay: Test A postemergence; conditions: 1000 g ai/ha, postemergence; 0 to 100 scale, 0 no effect, 100 complete control
Outline: as §1

[14] = test system: pigweed (Amaranthus retroflexus); assay: Test A postemergence; conditions: 1000 g ai/ha, postemergence; 0 to 100 scale, 0 no effect, 100 complete control
Outline: as §1

[15] = test system: velvetleaf (Abutilon theophrasti); assay: Test A postemergence; conditions: 1000 g ai/ha, postemergence; 0 to 100 scale, 0 no effect, 100 complete control
Outline: as §1

[16] = test system: wheat (Triticum aestivum); assay: Test A postemergence; conditions: 1000 g ai/ha, postemergence; 0 to 100 scale, 0 no effect, 100 complete control
Outline: as §1

Cc1cccc(NC(=O)C2C(=O)NCC2c2ccc(F)c(F)c2)c1N (racemic) [Compound 355]
0: Barnyardgrass plant response rating (0 to 100 scale) [1] | Corn plant response rating (0 to 100 scale) (corn (Zea mays) [2]) | Crabgrass, Large plant response rating (0 to 100 scale) [3] | Foxtail, Giant plant response rating (0 to 100 scale) [4] | Morningglory plant response rating (0 to 100 scale) [5] | Pigweed plant response rating (0 to 100 scale) [6] | Velvetleaf plant response rating (0 to 100 scale) [7] | Wheat plant response rating (0 to 100 scale) [8] | Plant response rating, Barnyardgrass [9] | Plant response rating, Corn (corn (Zea mays) [10]) | Plant response rating, Crabgrass, Large [11] | Plant response rating, Foxtail, Giant [12] | Plant response rating, Morningglory [13] | Plant response rating, Pigweed [14] | Plant response rating, Velvetleaf [15] | Plant response rating, Wheat [16]

Nc1c(NC(=O)C2C(=O)NCC2c2ccc(F)c(F)c2)cccc1[N+](=O)[O-] (racemic) [Compound 357]
0: Barnyardgrass plant response rating (0 to 100 scale) [1] | Corn plant response rating (0 to 100 scale) (corn (Zea mays) [2]) | Crabgrass, Large plant response rating (0 to 100 scale) [3] | Foxtail, Giant plant response rating (0 to 100 scale) [4] | Morningglory plant response rating (0 to 100 scale) [5] | Pigweed plant response rating (0 to 100 scale) [6] | Velvetleaf plant response rating (0 to 100 scale) [7] | Wheat plant response rating (0 to 100 scale) [8] | Plant response rating, Barnyardgrass [9] | Plant response rating, Corn (corn (Zea mays) [10]) | Plant response rating, Crabgrass, Large [11] | Plant response rating, Foxtail, Giant [12] | Plant response rating, Morningglory [13] | Plant response rating, Pigweed [14] | Plant response rating, Velvetleaf [15] | Plant response rating, Wheat [16]
